Literature values in US20220133758A1, “TREATMENT OF INFLAMMATORY BOWEL DISEASES WITH 2'-FUCOSYLLACTOSE COMPOUNDS” (CHILDREN'S HOSPITAL MEDICAL CENTER, priority 2017, published 2022).

Tests used:
[1] = infliximab or adalimumab anti-TNF therapy, despite optimal therapeutic drug monitoring and dosing
[2] = test system: EC genes regulating butyrate transport, signaling, and mitochondrial oxidation; settings: IBD patients who experience mucosal healing
[3] = test system: fecal Bifidobacterium

Substance	patients relapsed [1]	inflammatory suppression of EC genes regulating butyrate transport, signaling, and mitochondrial oxidation [2]	Bifidobacterium abundance ([3]; pediatric CD study)	correction of dysbiosis ([3]; suppression of mucosal inflammation)
adalimumab	37%			
infliximab: monoclonal anti-TNF antibody	37%	largely corrected	not associated with increased Bifidobacterium abundance	only partially corrects
